Test results as given in patent publication US7169786B2, “Isoxazoline derivatives as anti-depressants” (priority 2001, dated 2007).

How the values were obtained:
hα2A receptor = target: T1, hα2A receptor (Homo sapiens, UniProt P08913); assay: Radioligand binding experiment for hα2A receptor ([3H]-raulwolscine); settings: membranes of CHO cells expressing human α2A receptor, [3H]raulwolscine 1 nM; for IC50: read-out: hα2A pIC50 (converted)
T1 construct: expressed in transfected cells
T1 sequence (P08913 1-465): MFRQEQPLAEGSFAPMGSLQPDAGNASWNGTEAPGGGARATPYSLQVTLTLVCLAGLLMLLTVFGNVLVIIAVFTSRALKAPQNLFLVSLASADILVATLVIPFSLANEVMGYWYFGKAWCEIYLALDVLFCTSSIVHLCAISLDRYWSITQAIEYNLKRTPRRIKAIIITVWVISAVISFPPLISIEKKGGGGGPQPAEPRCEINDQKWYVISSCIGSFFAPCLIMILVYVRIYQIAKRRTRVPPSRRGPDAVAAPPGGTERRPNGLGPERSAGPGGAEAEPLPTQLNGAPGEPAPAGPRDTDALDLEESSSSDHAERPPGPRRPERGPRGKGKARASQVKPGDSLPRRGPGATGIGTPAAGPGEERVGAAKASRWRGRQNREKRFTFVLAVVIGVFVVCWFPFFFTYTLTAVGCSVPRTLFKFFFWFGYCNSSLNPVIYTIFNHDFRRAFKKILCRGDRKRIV
Experimental: (§1) The interaction of the compounds of Formula (I) with hα2-receptors and h5-HT-transporters was assessed in in vitro radioligand binding experiments. In general, a low concentration of a radioligand with a high binding affinity for a particular receptor or transporter is incubated with a sample of a tissue preparation enriched in a particular receptor or transporter or with a preparation of cells expressing cloned human receptors in a buffered medium. During the incubation, the radioligand binds to the receptor or transporter. When equilibrium of binding is reached, the receptor bound radioactivity is separated from the non-bound radioactivity, and the receptor- or transporter-bound activity is counted. The interaction of the test compounds with the receptor is assessed in competition binding experiments. Various concentrations of the test compound are added to the incubation mixture containing the receptor- or transporter preparation and the radioligand. The test compound in proportion to its binding affinity and its concentration inhibits binding of the radioligand. The radioligand used for hα2A, hα2B and hα2C receptor binding was [^3H]-raulwolscine and for the h5-HT transporter was [^3H]paroxetine.
(§2) CHO cells, stabile transfected with human adrenergic-α2A-, -α2B or α2C receptor cDNA, were cultured in Dulbecco's Modified Eagle's Medium (DMEM)/Nutrient mixture Ham's F12 (ratio 1:1)(Gibco, Gent-Belgium) supplemented with 10% heat inactivated fetal calf serum (Life Technologies, Merelbeke-Belgium) and antibiotics (100 IU/ml penicillin G, 100 μg/ml streptomycin sulphate, 110 μg/ml pyruvic acid and 100 μg/ml L-glutamine). One day before collection, cells were induced with 5 mM sodiumbutyrate. Upon 80–90% of confluence, cells were scraped in phosphate buffered saline without Ca^2+ and Mg^2+ and collected by centrifugation at 1500×g for 10 min. The cells were homogenised in Tris-HCl 50 mM using an Ultraturrax homogenizer and centrifuged for 10 min at 23,500×g. The pellet was washed once by resuspension and rehomogenization and the final pellet was resuspended in Tris-HCl, divided in 1 ml aliquots and stored at −70° C.
(§3) Membranes were thawed and re-homogenized in incubation buffer (glycylglycine 25 mM, pH 8.0). […] Filters were rinsed extensively with ice-cold rinsing buffer (Tris-HCl 50 mM pH 7.4). Filter-bound radioactivity was determined by scintillation counting in a Topcount (Packard, Meriden, Conn.) and results were expressed as counts per minute (cpm). Non-specific binding was determined in the presence of 1 μM oxymetazoline for hα2A- and hα2B receptors and 1 μM spiroxatrine for hα2C receptors.
(§4) Data from assays in the presence of compound were calculated as a percentage of total binding measured in the absence of test compound. Inhibition curves, plotting percent of total binding versus the log value of the concentration of the test compound, were automatically generated, and sigmoidal inhibition curves were fitted using non-linear regression. The pIC50 values of test compounds were derived from individual curves.

hα2C receptor = target: T2, hα2C receptor (Homo sapiens, UniProt P18825); assay: Radioligand binding experiment for hα2C receptor ([3H]-raulwolscine); settings: membranes of CHO cells expressing human α2C receptor, [3H]raulwolscine 1 nM; for IC50: read-out: hα2C pIC50 (converted)
T2 construct: expressed in transfected cells
T2 sequence (P18825 1-462): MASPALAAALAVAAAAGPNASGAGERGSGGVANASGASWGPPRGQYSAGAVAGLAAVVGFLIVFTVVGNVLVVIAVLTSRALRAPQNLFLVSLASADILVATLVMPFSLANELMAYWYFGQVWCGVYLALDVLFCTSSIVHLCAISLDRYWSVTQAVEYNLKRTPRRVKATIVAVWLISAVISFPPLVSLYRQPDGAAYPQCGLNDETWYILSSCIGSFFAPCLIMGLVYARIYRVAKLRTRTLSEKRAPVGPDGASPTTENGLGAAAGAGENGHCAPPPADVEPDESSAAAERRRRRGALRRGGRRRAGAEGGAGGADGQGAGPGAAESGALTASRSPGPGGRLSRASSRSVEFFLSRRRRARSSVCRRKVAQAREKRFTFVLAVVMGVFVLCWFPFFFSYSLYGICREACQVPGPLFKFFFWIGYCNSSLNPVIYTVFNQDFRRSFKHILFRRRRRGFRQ
Experimental: as §1, §2, §3, §4

h5-HT transporter = target: T3, h5-HT transporter (Homo sapiens, UniProt P31645); assay: Radioligand binding experiment for 5-HT transporter ([3H]paroxetine, human platelet membranes); settings: human platelet membranes, [3H]paroxetine 0.5 nM; for IC50: read-out: 5HTT pIC50 (converted)
T3 construct: Human platelet membranes (Oceanix Biosciences Corporation, Hanover, Md., USA) were thawed; tissue Oceanix Biosciences Corporation, Hanover, Md., USA; host or cells: human platelet membranes
Experimental: as §1
Human platelet membranes (Oceanix Biosciences Corporation, Hanover, Md., USA) were thawed, diluted in buffer (Tris-HCl 50 mM, 120 mM NaCl and 5 mM KCl) and quickly (max 3 s) homogenised with an Ultraturrax homogenizer. […] Filters were rinsed extensively with ice-cold buffer and radioactivity on the filters was counted in a Topcount liquid scintillation counter (Packard, Meriden, Conn.). Data were expressed as cpm. Imipramine (at 1 μM final concentration) was used to determine the non-specific binding.
as §4

hα2B receptor = target: T4, hα2B receptor (Homo sapiens, UniProt P18089); assay: Radioligand binding experiment for hα2B receptor ([3H]-raulwolscine); settings: membranes of CHO cells expressing human α2B receptor; [3H]raulwolscine 1 nM; read-out: hα2B pIC50 (converted)
T4 construct: expressed in transfected cells
T4 sequence (P18089 1-450): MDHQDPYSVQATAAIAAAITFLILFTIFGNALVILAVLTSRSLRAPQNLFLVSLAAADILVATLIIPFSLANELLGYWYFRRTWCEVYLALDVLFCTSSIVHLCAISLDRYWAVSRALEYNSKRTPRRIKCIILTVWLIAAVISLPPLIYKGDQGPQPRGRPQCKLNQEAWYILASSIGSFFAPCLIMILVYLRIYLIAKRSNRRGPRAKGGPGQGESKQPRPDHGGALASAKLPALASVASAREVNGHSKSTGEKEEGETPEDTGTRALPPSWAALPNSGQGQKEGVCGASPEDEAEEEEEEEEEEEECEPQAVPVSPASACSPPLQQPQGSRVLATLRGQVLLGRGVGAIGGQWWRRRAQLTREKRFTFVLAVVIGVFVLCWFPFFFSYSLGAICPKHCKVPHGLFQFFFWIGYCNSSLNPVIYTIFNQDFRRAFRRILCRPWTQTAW
Experimental: as §1, §2, §3, §4

T3 sequence (P31645 whole entry): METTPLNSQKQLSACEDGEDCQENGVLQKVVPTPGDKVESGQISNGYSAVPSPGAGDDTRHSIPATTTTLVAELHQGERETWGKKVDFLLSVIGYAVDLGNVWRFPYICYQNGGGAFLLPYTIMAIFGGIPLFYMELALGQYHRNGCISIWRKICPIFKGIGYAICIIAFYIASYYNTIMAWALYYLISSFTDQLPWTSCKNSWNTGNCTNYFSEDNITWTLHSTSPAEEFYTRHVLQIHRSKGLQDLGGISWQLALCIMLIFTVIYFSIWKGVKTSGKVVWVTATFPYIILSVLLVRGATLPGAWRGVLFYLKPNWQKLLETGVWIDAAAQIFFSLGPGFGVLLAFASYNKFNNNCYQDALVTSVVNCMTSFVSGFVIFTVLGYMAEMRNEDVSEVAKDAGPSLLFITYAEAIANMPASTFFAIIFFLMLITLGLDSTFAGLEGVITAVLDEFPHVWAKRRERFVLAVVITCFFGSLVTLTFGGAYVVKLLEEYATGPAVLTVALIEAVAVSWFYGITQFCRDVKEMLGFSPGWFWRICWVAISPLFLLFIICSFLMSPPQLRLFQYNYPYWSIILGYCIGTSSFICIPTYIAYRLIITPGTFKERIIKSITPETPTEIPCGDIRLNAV

| Structure (SMILES) | IC50 (hα2A receptor) | IC50 (hα2C receptor) | IC50 (h5-HT transporter) | IC50 (hα2B receptor) | hα2A pIC50 (hα2A receptor) | hα2C pIC50 (hα2C receptor) | 5HTT pIC50 (h5-HT transporter) |
| --- | --- | --- | --- | --- | --- | --- | --- |
| COC(=O)Oc1cc2c(cc1OC)C1=NOC(CN3CCN(C/C(C)=C/c4ccccc4)CC3)C1CO2 (single isomer, unassigned) [Compound 343] | 2.34 nM | 1.23 nM | 37.2 nM | – | – | – | – |
| COc1ccccc1C=C(C)CN1CCN(CC2ON=C3c4cc(OC)c(OC)cc4OCC32)CC1 (centres unmarked) [Compound 201] | 4.37 nM | 4.57 nM | – | 3.24 nM | – | – | – |
| COc1cc2c(cc1OC)C1=NOC(CN3CCN(CC(C)=Cc4ccc(F)cc4)CC3)C1CO2 (centres unmarked) [Compound 196] | 14.5 nM | 8.13 nM | – | 3.63 nM | – | – | – |
| COc1cc2c(cc1OCC1CC1)OCC1C2=NOC1CN1CCN(C/C(C)=C/c2ccc(F)cc2)CC1 (single isomer, unassigned) [Compound 337] | 20.9 nM | – | – | – | – | – | – |
| COc1cc2c(cc1OC)C1=NOC(CN3CCN(CC(C)=Cc4cccc(F)c4)CC3)C1CO2 (centres unmarked) [Compound 195] | 4.57 nM | 2.09 nM | – | 1.58 nM | – | – | – |
| COc1ccccc1C=CCN1CCN(CC2ON=C3c4cc(OC)c(OC)cc4OCC32)CC1 (centres unmarked) [Compound 41] | 15.8 nM | 12.6 nM | – | 5.01 nM | – | – | – |
| COc1cc2c(cc1OC)C1=NOC(CN3CCN(C/C=C(\C)c4ccc(F)cc4)CC3)C1CO2 (single isomer, unassigned) [Compound 361] | 12.6 nM | 3.09 nM | 4.17 nM | – | – | – | – |
| COc1cc2c(cc1OCCOC(C)=O)C1=NOC(CN3CCN(CC(C)=Cc4ccccc4)CC3)C1CO2 (centres unmarked) [Compound 332] | 4.47 nM | 0.603 nM | 58.9 nM | – | – | – | – |
| COc1cc2c(cc1SC)OCC1C2=NOC1CN1CCN(CC(C)=Cc2ccccc2)CC1.O=C(O)C(F)(F)F (racemic) [Compound 350] | – | – | – | – | 8.39 | 8.68 | 7.69 |
| COc1cc2c(cc1OC(C)=O)OCC1C2=NOC1CN1CCN(Cc2ccc3ccccc3c2)CC1 (centres unmarked) [Compound 355] | 5.13 nM | 7.08 nM | 13.5 nM | – | – | – | – |
| COc1cc2c(cc1OC)C1=NOC(CN3CCN(C/C=C(\C)c4cccc(Cl)c4)CC3)C1CO2 (single isomer, unassigned) [Compound 366] | 12.9 nM | 3.31 nM | 11.5 nM | – | – | – | – |
| COc1cc2c(cc1OC(C)=O)OCC1C2=NOC1CN1CCN(C/C=C(\C)c2ccccc2)CC1 (single isomer, unassigned) [Compound 358] | 1.48 nM | 3.24 nM | 37.2 nM | – | – | – | – |
| COc1cc2c(cc1OC)C1=NOC(CN3CCN(CC(C)=Cc4cc(F)ccc4F)CC3)C1CO2 (centres unmarked) [Compound 199] | 1.2 nM | 1.66 nM | – | 1 nM | – | – | – |
| COc1cc2c(cc1OC)C1=NOC(CN3CCN(Cc4cccc(Br)c4)CC3)C1CO2 (centres unmarked) [Compound 90] | 195 nM | – | 302 nM | – | – | – | – |
| COc1cc2c(cc1OC)C1=NOC(CN3CCN(CCC(=O)c4ccccc4)CC3)C1CO2 (centres unmarked) [Compound 309] | 50.1 nM | 58.9 nM | 389 nM | – | – | – | – |
| COc1cc2c(cc1OS(C)(=O)=O)OCC1C2=NOC1CN1CCN(CC(C)=Cc2ccccc2)CC1 (single isomer, unassigned) [Compound 346] | – | – | – | – | 8.65 | 8.91 | 8.37 |
| COc1cc2c(cc1OC)C1=NOC(CN3CCN(CC(C)=Cc4cccc5ccccc45)CC3)C1CO2 (centres unmarked) [Compound 157] | 13.5 nM | 74.1 nM | – | 52.5 nM | – | – | – |
| COc1cc2c(cc1OC)C1=NOC(CN3CCN(C/C=C(\C)c4ccccc4F)CC3)C1CO2 (single isomer, unassigned) [Compound 359] | 7.94 nM | 3.47 nM | 44.7 nM | – | – | – | – |
| COc1cc2c(cc1OC)C1=NOC(CN3CCN(C/C=C(\C)c4ccsc4)CC3)C1CO2 (single isomer, unassigned) [Compound 323] | 6.17 nM | 9.55 nM | 15.1 nM | – | – | – | – |
| COc1cc2c(cc1OC(C)=O)OCC1C2=NOC1CN1CCN(C/C(C)=C/c2cccc(F)c2)CC1 (single isomer, unassigned) [Compound 334] | 2.69 nM | 2.29 nM | – | – | – | – | – |
| COc1cc2c(cc1OCCN(C)C)OCC1C2=NOC1CN1CCN(C/C(C)=C/c2ccccc2)CC1 (single isomer, unassigned) [Compound 341] | 3.63 nM | 1.23 nM | 2.19 nM | – | – | – | – |
| COCCOCOc1cc2c(cc1OC)C1=NOC(CN3CCN(C/C(C)=C/c4ccccc4)CC3)C1CO2 (single isomer, unassigned) [Compound 342] | 8.51 nM | 0.162 nM | 17.4 nM | – | – | – | – |
| COc1cc2c(cc1OC)C1=NOC(CN3CCN(CCC(O)c4ccccc4)CC3)C1CO2 (centres unmarked) [Compound 310] | 214 nM | 64.6 nM | 871 nM | – | – | – | – |
| COc1cc2c(cc1OC)C1=NOC(CN3CCN(Cc4cccn4C)CC3)C1CO2 (centres unmarked) [Compound 291] | 851 nM | 1000 nM | 1000 nM | – | – | – | – |
| C=CCOc1cc2c(cc1OC)C1=NOC(CN3CCN(CC(C)=Cc4ccccc4)CC3)C1CO2 (single isomer, unassigned) [Compound 344] | – | – | – | – | 8.45 | 8.68 | 8.00 |
| COc1ccc2c(c1)C1=NOC(CN3CCN(CC(C)=Cc4ccccc4)CC3)C1CO2 (centres unmarked) [Compound 348] | 1.2 nM | 1.32 nM | 17.8 nM | – | – | – | – |
